According to patent US20050033056A1, “Hydroxylated indole derivatives and uses thereof” (priority 2001, published 2005):

Biological target: T1, CYP1A2 (Homo sapiens, UniProt P05177)
T1 construct: tissue Gentest Corp. (Woburn, Mass.); host or cells: pooled human liver microsomes
T1 sequence (P05177 1-516): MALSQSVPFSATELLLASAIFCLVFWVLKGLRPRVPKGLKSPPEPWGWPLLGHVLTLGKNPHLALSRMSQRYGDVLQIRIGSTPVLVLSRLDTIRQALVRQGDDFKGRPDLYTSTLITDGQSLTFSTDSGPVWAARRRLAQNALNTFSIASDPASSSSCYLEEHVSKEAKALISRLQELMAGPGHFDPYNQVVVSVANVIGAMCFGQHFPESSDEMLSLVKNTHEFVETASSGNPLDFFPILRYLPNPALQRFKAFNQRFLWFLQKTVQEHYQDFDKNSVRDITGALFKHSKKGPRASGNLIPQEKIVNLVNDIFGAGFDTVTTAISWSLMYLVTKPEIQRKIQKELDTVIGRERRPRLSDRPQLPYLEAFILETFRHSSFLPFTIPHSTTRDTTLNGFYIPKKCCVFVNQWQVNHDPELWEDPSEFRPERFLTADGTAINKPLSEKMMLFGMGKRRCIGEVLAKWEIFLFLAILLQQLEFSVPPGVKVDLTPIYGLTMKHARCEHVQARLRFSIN
Test: CYP inhibition in HLM: R-warfarin 6-hydroxylation
Type: in vitro ADME
Conditions: 10 or 50 μM
Experimental: The incubations were carried out in test tubes (12.0×75 mm). The incubation mixtures (250 μL) contained 0.5 mg of HLM protein, 50 (CYP1A2 and CYP2E1) or 25 (CYP2C9, CYP2C19, CYP2D6 and CYP3A4) pmol of recombinant human CYPs, Compound 1 (10 or 50 μM), probe substrate (R—, S-warfarin, chlorzoxazone, S-mephenyloin, or bufuralol) at different concentrations, and 0.5 mg of NADPH in 50 mM Tris buffer containing 15 mM MgCl2 (pH 7.4). Compound 1 was added to the reaction mixture 5 minutes prior to the addition of the probe substrate. […]
The quantification was based on the calibration curves, and the quality control (QC) samples were applied to ensure the quality of the experiments. […]
1. CYP1A2/2C9/3A4-mediated warfarin 6-, 7-, 8-, and 10-hydroxylation (Zhang et al., Drug Metab. Dispos. 23:1339-1346, 1995; Rettie et al., Chem. Res. Toxicol. 5:54-59, 1992; Brian et al., Biochemistry 29:11280-11292, 1990): Hewlett Packard 1100 HPLC system (Waldbronn, Germany) comprised a binary pump, an autosampler, a column compartment unit, a photodiode array detector (PDA), and a fluorescence detector. […] The warfarin metabolites, 6-, 8-, and 10-hydroxywarfarin, were monitored by UV at 313 nm, and 7-hydroxywarfarin by fluorescence at Ex320 nm/Em380 nm. […]

**Q.** How did the “inhibitory effect on CYP1A2 activity (in words)” value turn out when `CNC(=O)Cc1ccc2ccn(C3CCN(CCc4ccccc4F)CC3)c2c1` [Compound 1, N-methyl-[1-[1-(2-fluorophenethyl)piperidine-4-yl]-1H-indol-6-yl] acetamide] was run?
**A.** no inhibitory effect
